Test results taken from PubChem BioAssay AID2060342 (Molecular Pharmacology Branch, DTP, NCI, 2025).
pIC50: −log10 of the molar value.

Test system: 171881-019-R-J1-PDC multicell spheroid viability
Test: Anticancer human tumor 171881-019-R-J1-PDC patient-derived invasive breast carcinoma cell line growth inhibition [IpAb]
Conditions: for pIC50: curve of first compound; for viability, T/C: stronger effect = lower value
Procedure, shortened: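 Multi-cell spheroids of 60% tumour cells, 25% HUVEC and 15% MSC in ultra-low-attachment U-bottom wells, treated with agents combined with ipatasertib or abemaciclib. Half-log ranges top out near clinical Cmax, or 10 microM when Cmax is unknown.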
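Further: spheroids exposed to the agents for seven days before readout.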

In the case of `CC(C)(C)c1cnc(CSc2cnc(NC(=O)C3CCNCC3)s2)o1` + CC(C)NCC(C(=O)N1CCN(c2ncnc3c2C(C)CC3O)CC1)c1ccc(Cl)cc1, the pIC50 (second compound 0.1 µM) was 6.73, the pIC50 (second compound 0.316 µM) was 6.81 and the pIC50 (second compound 1 µM) was > 8.02. For the same molecule, the pIC50 (second compound 3.16 µM) was > 8.02, the pIC50 (second compound 10 µM) was > 8.02 and the viability, T/C (second compound 0.1 µM, first compound 0.00949 µM) was 104%. It also gave a viability, T/C (second compound 0.1 µM, first compound 0.03 µM) of 120%, a viability, T/C (second compound 0.1 µM, first compound 0.0949 µM) of 133% and a viability, T/C (second compound 0.1 µM, first compound 0.3 µM) of 2.16%. For the same molecule, the viability, T/C (second compound 0.1 µM, first compound 0.949 µM) was 0.19%, the viability, T/C (second compound 0.1 µM, first compound 3 µM) was 0.6% and the viability, T/C (second compound 0.316 µM, first compound 0.00949 µM) was 82.3%. For the same molecule, the viability, T/C (second compound 0.316 µM, first compound 0.03 µM) was 91%, the viability, T/C (second compound 0.316 µM, first compound 0.0949 µM) was 89.2% and the viability, T/C (second compound 0.316 µM, first compound 0.3 µM) was 0.99%. The viability, T/C (second compound 0.316 µM, first compound 0.949 µM) was 0.25%, the viability, T/C (second compound 0.316 µM, first compound 3 µM) was 0.63% and the viability, T/C (second compound 1 µM, first compound 0.00949 µM) was 24.9%. It also gave a viability, T/C (second compound 1 µM, first compound 0.03 µM) of 34.3%, a viability, T/C (second compound 1 µM, first compound 0.0949 µM) of 38.6% and a viability, T/C (second compound 1 µM, first compound 0.3 µM) of 0.53%. It also gave a viability, T/C (second compound 1 µM, first compound 0.949 µM) of 0.49%, a viability, T/C (second compound 1 µM, first compound 3 µM) of 0.25% and a viability, T/C (second compound 3.16 µM, first compound 0.00949 µM) of 11.1%. For the same molecule, the viability, T/C (second compound 3.16 µM, first compound 0.03 µM) was 13.2%, the viability, T/C (second compound 3.16 µM, first compound 0.0949 µM) was 19.1% and the viability, T/C (second compound 3.16 µM, first compound 0.3 µM) was 0.68%. It also gave a viability, T/C (second compound 3.16 µM, first compound 0.949 µM) of 0.24%, a viability, T/C (second compound 3.16 µM, first compound 3 µM) of 0.28% and a viability, T/C (second compound 10 µM, first compound 0.00949 µM) of 5.77%. The viability, T/C (second compound 10 µM, first compound 0.03 µM) was 6.05%, the viability, T/C (second compound 10 µM, first compound 0.0949 µM) was 9.31% and the viability, T/C (second compound 10 µM, first compound 0.3 µM) was 0.64%. The viability, T/C (second compound 10 µM, first compound 0.949 µM) was 0.26% and the viability, T/C (second compound 10 µM, first compound 3 µM) was 0.31%.
